# According to patent publication EP4700023A1, “GLP-1R RECEPTOR AGONIST COMPOUND SALT AND CRYSTAL FORM THEREOF, PREPARATION METHOD THEREFOR AND USE THEREOF” (Chengdu Vincentage Pharma Co., Ltd., priority 2023, dated 2024):
# Where a name gives a salt, the structure may show the parent alone.
# Columns and labels:
# [1] = Compressibility test (tableting, XRPD detection); format: physicochemical; conditions: compressed into tablets
# [2] = Purity test after storage in an oven at set temperature (stability); format: physicochemical; conditions: 80°C, 1 day
# [3] = Grindability test (mortar, XRPD detection); format: physicochemical
# Method: Grindability test: An appropriate amount of the crystal compound to be tested was placed in a mortar and ground for 2 min and 5 min, followed by XRPD detection.
# [4] = Pharmacokinetic evaluation in rats; format: in vivo; conditions: Rat PK, 10 mg/kg, compared with the free acid
# Method: Rats were used as test animals, and the plasma drug concentrations at different time points after gavage administration of the test sample were measured. The pharmacokinetic behavior of the compound of the present disclosure in rats was studied to evaluate its metabolic characteristics. For each experimental group, 3 rats with similar body weights were selected and orally administered a single dose of 10 mg/kg. […] Pharmacokinetic parameter calculations were performed using metabolic kinetic data analysis software WinNonlin 7.0 by non-compartmental analysis (NCA) based on plasma concentration data.
# A test sample with a final preparation concentration (based on the content of the compound of formula I) of 1.0 mg/mL was prepared for oral administration, using a 0.5% CMC Na aqueous solution as the preparation solvent.
# Administration: After overnight fasting (12 hours), rats were administered by gavage at a dose of 10 mg/kg.
# The blood samples were placed in heparinized sample tubes, and centrifuged at 4°C and 3500 rpm for 10 minutes to separate plasma, which was then stored at -20°C. Food was provided 2 hours after administration.
# Determination of the content of the compound to be tested in rat plasma after gavage administration: After thawing plasma samples at room temperature, 300 µL of internal standard (terfenadine 200 ng/mL, acetonitrile) was added to each sample. The mixtures were vortexed for 1 min and then centrifuged at 4°C and 15400 rpm for 10 min. The supernatant was diluted 20-fold with 80% acetonitrile-water and then injected for LC/MS/MS analysis.
# [5] = Tableting and grinding test (XRPD, FIG. 21 to 25); format: physicochemical; conditions: first and second tableting at 20 MPa, tableting at 40 MPa, grinding for 1, 3 and 5 minutes; FIG. 24, 25
# Method: Grindability test: An appropriate amount of the crystal compound to be tested was placed in a mortar and ground for 2 min and 5 min, followed by XRPD detection. […]
# [6] = Hygroscopicity test method (DVS); format: physicochemical; design: Sorption / Desorption / Hysteresis: unit not given here; conditions: for Desorption / Sorption / Hysteresis: onset temperature 24.9°C
# Method: Hygroscopicity test method (DVS): The hygroscopicity of the sample was measured using SMS Intrinsic Plus. The sample was weighed into a sample pan, equilibrated at 25°C until dm/dt was less than 0.002%, and then measured in time mode. The humidity was adjusted from 60%-90%-0%-90%-0% RH, with increments of 10% RH per step, and each humidity level was maintained for 1 hour.
# [7] = Purity test after storage in an oven at set temperature (stability); format: physicochemical; conditions: HPLC
# Method: Purity test: The sample to be tested was dissolved in a methanol solution, and the sample purity was measured by HPLC.
# [8] = Comparison of crystal forms of the salt (behaviour during preparation); conditions: during the preparation process
# [9] = Cycle 2, target humidity 0.0 % P/P0
# [10] = Cycle 2, target humidity 10.0 % P/P0
# [11] = Cycle 2, target humidity 20.0 % P/P0
# [12] = Cycle 2, target humidity 30.0 % P/P0
# [13] = Cycle 2, target humidity 40.0 % P/P0
# [14] = Cycle 2, target humidity 50.0 % P/P0
# [15] = Cycle 2, target humidity 60.0 % P/P0
# [16] = Cycle 2, target humidity 70.0 % P/P0
# [17] = Cycle 2, target humidity 80.0 % P/P0
# [18] = Cycle 2, target humidity 90.0 % P/P0
# [19] = Target humidity 60.0 % P/P0, first cycle
# [20] = Target humidity 70.0 % P/P0, first cycle
# [21] = Target humidity 80.0 % P/P0, first cycle
# [22] = Target humidity 90.0 % P/P0, first cycle
compound,measurement,setting,value
"O=C(O)c1ccc2nc(CN3CCC(c4ccccc4OCc4ccc(Cl)cc4F)CC3)n(C[C@@H]3CCO3)c2c1 [Crystal form A of the monohydrate of the compound of formula] [Crystal form A of the monohydrate of the 2-amino-2-(hydroxymethyl)-1,3-propanediol salt of (S)-2-((4-(2-((4-chloro-2-fluorobenzyl)oxy)phenyl)piperidin-1-yl)methyl)-1-(oxetan-2-aminomethyl)-1H-benzo[d]imidazole-6-carboxylate]",Compressibility (20 Mp),[1],Crystal form unchanged
same,Solid form after 80°C (1 day),[2],retained the crystal form
same,"Grindability (mortar 5 min), purity change",[3],purity unchanged
same,"Grindability (mortar 5 min), solid form",[3]; XRPD,Crystalline form unchanged
same,Oral absorption,[4],significantly better oral absorption than the compound of formula I (free acid)
same,Crystallinity after tableting and grinding,[5],basically stable
same,Hygroscopicity (80% RH),"[6]; 80% RH, 25°C, DVS",0.34%
same,"Hygroscopicity (80% RH), description in words","[6]; 80% RH, 25°C, DVS",Slightly hygroscopic
same,Desorption,[6]; [9],0.0112
same,Sorption,[6]; [9],0.0000
same,Desorption,[6]; [10],0.1186
same,Hysteresis,[6]; [10],0.0161
same,Sorption,[6]; [10],0.1025
same,Desorption,[6]; [11],0.1641
same,Hysteresis,[6]; [11],0.0175
same,Sorption,[6]; [11],0.1466
same,Desorption,[6]; [12],0.1996
same,Hysteresis,[6]; [12],0.0182
same,Sorption,[6]; [12],0.1814
same,Desorption,[6]; [13],0.2286
same,Hysteresis,[6]; [13],0.0145
same,Sorption,[6]; [13],0.2141
same,Desorption,[6]; [14],0.2611
same,Hysteresis,[6]; [14],0.0167
same,Sorption,[6]; [14],0.2443
same,Desorption,[6]; [15],0.2923
same,Hysteresis,[6]; [15],0.0177
same,Sorption,[6]; [15],0.2746
same,Desorption,[6]; [16],0.3219
same,Hysteresis,[6]; [16],0.0176
same,Sorption,[6]; [16],0.3043
same,Desorption,[6]; [17],0.3457
same,Hysteresis,[6]; [17],0.0099
same,Sorption,[6]; [17],0.3458
same,Desorption,[6]; [18],0.3759
same,Sorption,[6]; [18],0.3759
same,Desorption,"[6]; Target humidity 0.0 % P/P0, first cycle",0.0000
same,Desorption,"[6]; Target humidity 10.0 % P/P0, first cycle",0.1080
same,Desorption,"[6]; Target humidity 20.0 % P/P0, first cycle",0.1542
same,Desorption,"[6]; Target humidity 30.0 % P/P0, first cycle",0.1894
same,Desorption,"[6]; Target humidity 40.0 % P/P0, first cycle",0.2213
same,Desorption,"[6]; Target humidity 50.0 % P/P0, first cycle",0.2553
same,Desorption,[6]; [19],0.2989
same,Hysteresis,[6]; [19],0.0002
same,Sorption,[6]; [19],0.2896
same,Desorption,[6]; [20],0.3213
same,Hysteresis,[6]; [20],0.0053
same,Sorption,[6]; [20],0.3160
same,Desorption,[6]; [21],0.3490
same,Hysteresis,[6]; [21],0.0064
same,Sorption,[6]; [21],0.3426
same,Desorption,[6]; [22],0.3817
same,Sorption,[6]; [22],0.3817
same,"Purity, 2 to 8°C (6 months)","[7]; 2 to 8°C, 6 months",99.90%
same,"Purity, Onset",[7]; Onset (before storage),99.95%
same,"Purity, 60°C (7 day)","[7]; oven, 60°C, 7 day",99.90%
same,"Purity, 80°C (1 day)","[7]; oven, 80°C, 1 day",99.35%
"C1COCCO1.NC(CO)(CO)CO.O=C(O)c1ccc2nc(CN3CCC(c4ccccc4OCc4ccc(Cl)cc4F)CC3)n(CC3CCO3)c2c1 [Crystal form B of the 1,4-dioxane solvate of the 2-amino-2-(hydroxymethyl)-1,3-propanediol salt of (S)-2-((4-(2-((4-chloro-2-fluorobenzyl)oxy)phenyl)piperidin-1-yl)methyl)-1-(oxetan-2-aminomethyl)-1H-benzo[d]imidazole-6-carboxylate]",Crystal form stability during preparation,[8],"unstable, prone to crystal form transformation during preparation"
